No end group written: not given here.
Key:
human T cells [1] = assay: IL-2-induced T cell adhesion to LN, CO-IV and FN after peptide pre-treatment; assay type: cell-based; settings: pre-exposed to peptide 10 pg/ml, then IL-2 10 U/ml
Protocol: The T cells were then seeded onto microtiter wells that were pre-coated (1 μg/well) with the various ECM glycoproteins. T cell adhesion was measured 30 min later.
T cell adhesion assays. Human T cells were purified from the peripheral blood of healthy donors, and T cell adhesion to immobilized protein substrates was examined as follows: Human leukocytes were isolated on a Ficoll gradient, washed, and incubated (2 h, 37° C., 7.5% CO2, humidified atmosphere) on petri dishes. The non-adherent cells were then collected and incubated (1 h, 37° C., 7.5% CO2, humidified atmosphere) on nylon wool columns (Novamed Ltd., Jerusalem, Israel). Unbound cells were eluted from the columns by extensive washings. The resulting cell population was always >92% T cells. […] After 4-6 h at 37° C., the wells were washed and ^51[Cr]-labeled T cells were added to the wells, 10^5 cells/100 μl of adhesion medium (RPMI-1640 supplemented with 0.1% BSA, 1% sodium pyruvate, 1% HEPES buffer). The microtiter plates containing the cells were incubated (30 min, 37° C.) in a humidified, 7.5% CO2 atmosphere, and then washed. The adherent cells were lysed, and the resulting supernatants were removed and analyzed in a γ-counter. For each experimental group, the results were expressed as the mean percentage ±SD of bound T cells from quadruplicate wells.
Ile-Val-Leu, Arg-Met-Leu-Thr (SEQ ID NO:2) and […](SEQ ID NO:1) inhibit T cell adhesion to LN, CO-IV and FN. The next experiment was designed and performed to verify that the three IL-2-derived peptides indeed affect T cell interactions with ECM glycoproteins other than FN. […] The treated cells were then added to microtiter wells coated with CO-IV, LN, and FN.

T cells = assay: Staining of actin cytoskeleton in FN-adherent activated T cells; assay type: cell-based, human; settings: TRITC-phalloidin staining
Protocol: FIGS. 8A-8E show inhibition by pep2 of the spreading and redistribution of the actin cytoskeleton in IL-2- and PMA-activated FN-adherent T cells. […] After incubation, the intracellular actin filaments of the fixed FN-attached T cells were stained. Original magnification, =1000.
Staining of actin cytoskeleton. T cells were incubated (18 h, 37° C., 7.5% CO2, humidified atmosphere) in culture medium. […] After 1 h at 37° C., the adherent cells were fixed (3 min) with paraformaldehyde (3%) and Triton X-100 (0.5%), washed, and fixed (20 min) again with paraformaldehyde (3%). The fixed adherent cells were washed, treated with TRITC-phalloidin, and washed again. Photographs (×1000 magnification) were then taken.
Inhibition of the reorganization of the actin cytoskeleton in FN-attached activated T cells by the […](SEQ ID NO:1) peptide. The adhesion of immune cells to ECM is dependent on the sequestering of the cytoplasmic domains of integrins in focal adhesion sites, together with actin-containing microfilament bundles (Sanchez-Mateos et al., 1996). Therefore, we examined the effect of […](SEQ ID NO:1) on the morphologies of adherent T cells. […] After incubation and fixation, the actin cytoskeleton of attached T cells was stained with TRITC-conjugated phalloidin. […]

human T cells [2] = assay: PHA- or IL-2-mediated T cell proliferation; assay type: cell-based; settings: peptide 1 to 100 pg/ml
Protocol: The in vitro bioassays (a) to (e) are well-known in the art. Thus, for example, assays (a), (b) and (e) may be carried out as described in the section Materials and Methods hereinafter. […] The IL-2-derived peptides or their derivatives are added to the culture wells (different amounts, 10 microliters) for the entire period of the assay. [^3H]-Thymidine is added to the microtiter 96 U-form well plates 18 h before harvesting the cultures on day 3 onto glass fiber filters and counted by liquid scintillation counter. Mean CPM and SD from quadriplicate culture are then presented.

| Substance | inhibition of T cell adhesion to CO-IV, LN and FN (human T cells [1]) | redistribution of the actin cytoskeleton in IL-2- and PMA-treated FN-adherent T cells (T cells) | interference with PHA- or IL-2-mediated proliferative responses (human T cells [2]) |
| --- | --- | --- | --- |
| Glu-Phe-Leu-Asn-Arg-Trp-Ile-Thr (EFLNRWIT; not fully specified (C-terminus); printed as Glu-Phe-Leu-Asn-Arg-Trp-Ile-Thr) [pep2] | inhibit T cell adhesion to the three major cell-adhesive glycoproteins of the ECM | inhibited the redistribution of the actin skeleton | none of them, at 1 to 100 pg/ml, interfered with either PHA- or IL-2-mediated proliferative responses |
| Ile-Val-Leu [pep1] | inhibit T cell adhesion to the three major cell-adhesive glycoproteins of the ECM | inhibition of the redistribution of the actin cytoskeleton | none of them, at 1 to 100 pg/ml, interfered with either PHA- or IL-2-mediated proliferative responses |

— patent publication US6906170B1 (Yeda Research and Development Co. Ltd., priority 1998, dated 2005)
